Structures are written as SMILES.

For orientation: melting point means the temperature of the solid-liquid transition. With `O=C(c1ccc(Cl)cc1)c1noc(-c2ccc(Cl)cc2)c1S(=O)(=O)c1ccccc1`, the melting point stood at 147 °C.
For `COC(=O)c1ccc(Cl)nc1`, the melting point turned out to be 86 °C.
`Nc1ccccc1C(=O)c1ccccc1C(=O)O`: the melting point is 196 to 200 °C.
For `C/C=C/C(=O)N1C(=O)OC[C@@H]1Cc1ccccc1` the value was 84 to 85 °C; for `COc1ccc(CCCCO)cc1`, 3.5 °C.
For `Cc1ccccc1-c1ccccc1P(C(C)(C)C)C(C)(C)C`, the melting point came out at 91.5 °C.
For `N#Cc1ccc(C(F)(F)F)nc1` the value was 39 °C.
`CC(NC(=O)C(C)NC(=O)C(N)CCP(C)(=O)O)C(=O)O` (centres undefined) returned a melting point of 160 °C.
Then `O=[N+]([O-])c1ccc(Cl)cc1O`, with 41 °C.
Then `Oc1ncnc2cccc(F)c12`, with 238 °C; and `Nc1ccc2c(c1)CS(=O)(=O)C2`, with 186 to 187 °C.
`CC1(C)CC(=O)c2cc(-c3ccccc3)n(CCc3ccccc3)c2C1`: the melting point fell in the range of 113 to 115 °C.
Consider `Cc1c(Cc2c(C)n(C)n(-c3ccccc3)c2=O)c(=O)n(-c2ccccc2)n1C`, for which the melting point worked out at 155 °C.
`COC(=O)CCC(C)C1CCC2C3C(O)C(O)C4CC(O)CCC4(C)C3CC(O)C12C` (centres undefined) gave a melting point of 162 °C.
Then `COc1ccc(S(N)(=O)=O)cc1F`, with 126 °C; and `CC=NO`, with 45 °C.
The molecule `CC(C)c1nsc(N)n1` had a melting point of 119 to 120 °C.
For `O=C(O)c1ccc(CN2CCCCC2)cc1` the value was 286 to 293 °C; for `O=C(Nc1cc(O)cc(C(=O)O)c1)OCC1c2ccccc2-c2ccccc21`, 234 to 236 °C.
In turn, `CC1CC(=O)CC2CCC3C4CCC(O)C4(C)CCC3C12C` (centres undefined) yielded a melting point of 204 °C.
For `CC(=O)N1CCSC1C(=O)NN` (centres undefined) the value was 193 to 196 °C; for `O=C(Cl)c1cc(Cl)cc(Cl)c1`, 40 °C; for `Cc1ccc(C)c(N2CCNCC2)c1`, 45 °C.
Then `Oc1cc(Cl)c(-c2ccccc2)nn1`, with 235 to 236 °C; and `Cc1ccc(N=Nc2ccc(C)cc2)cc1`, with 140 °C.
For `C=CCOC1=NS(=O)(=O)c2ccccc21` the value was 138 °C.
Molecule `C/C(=N\c1cccc2cccc(N)c12)c1c(O)c2ccccc2n(-c2ccccc2)c1=O` returned a melting point greater than 300 °C.
For `Cc1cccc(NC(=O)c2nn(-c3ccccc3)nc2C)n1` the value was 136 to 137 °C; for `Cc1n[nH]c(C)c1Cc1ccccc1`, 119 °C; for `O=C(O)c1cc(S(=O)(=O)F)ccc1Cl`, 148 to 151 °C.
Regarding `Cc1cccc(NC(=O)C(C(F)(F)F)C(F)(F)F)n1`, the melting point amounted to 107 °C.
Then `COC(=O)c1ccc(Br)o1`, with 64 °C.
Then `O=C1NN(c2ccccc2)C(=O)/C1=C/c1ccccc1`, with 275 °C.
For `Nc1cccc(F)c1C(=O)O` the value was 170 to 172 °C; for `[O-][N+](=Nc1ccccc1)c1ccc(N=Nc2ccc([N+]([O-])=Nc3ccccc3)cc2)cc1`, 138 to 139 °C; for `CCCCCCCCC=CCCCCCCCC(=O)OC(=O)CCCCCCCC=CCCCCCCCC`, 22 to 23 °C.
As for `COc1ccc(CCCO)cc1`, the melting point was 26 °C.
For `OCc1cccc(CO)n1` the value was 112 to 115 °C; for `C=C(C)CCC=C(C)C`, -70 °C.
For `O=C(c1ccccc1)c1cccnc1` the value was 38 °C; for `C=Cc1ccccc1OC`, 29 °C.
For `CCC(C)c1ccccc1OC(=O)NC` (centres undefined) the value was 31.5 °C; for `Nc1ccccc1OCCN1CCOCC1`, 41 to 42 °C; for `O=C(O)c1cc2cc(Br)ccc2o1`, 257 to 260 °C.

The values are drawn from a melting point compilation (Tetko et al.).
